Test results as given in patent publication US8192962B2, “Processes for detecting toxic substances” (Daikin Industries, Ltd., priority 2001, dated 2012).

Test system: Transport facilitation protein genes
Assay: DNA chip mRNA expression in yeast, transport facilitation protein genes (Table 5)
Type: cell-based, Saccharomyces cerevisiae S288C
Procedure, shortened: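 First, S288C yeast grown in YPD at 25° C. are dosed in log phase with one toxicant (growth-inhibiting, not lethal) for 2 h. Next, total RNA is extracted and poly(A) mRNA isolated and reverse-transcribed with Cy3/Cy5-dUTP. Finally, whole-genome chip fluorescence is read relative to unexposed cells.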

Na2As [(1)]
The level of expressed mRNA in the presence of chemical substance/The level of expressed mRNA in the absence of chemical substance (yeast gene YGR224W): 0.9 | The level of expressed mRNA in the presence of chemical substance/The level of expressed mRNA in the absence of chemical substance (yeast gene YGR260W): 0.6 | The level of expressed mRNA in the presence of chemical substance/The level of expressed mRNA in the absence of chemical substance (yeast gene YGR281W): 1.2 | The level of expressed mRNA in the presence of chemical substance/The level of expressed mRNA in the absence of chemical substance (yeast gene YHL035C): 0.7 | The level of expressed mRNA in the presence of chemical substance/The level of expressed mRNA in the absence of chemical substance (yeast gene YHL040C): 1.6 | The level of expressed mRNA in the presence of chemical substance/The level of expressed mRNA in the absence of chemical substance (yeast gene YHL047C): 0.6 | The level of expressed mRNA in the presence of chemical substance/The level of expressed mRNA in the absence of chemical substance (yeast gene YHR026W): 0.9 | The level of expressed mRNA in the presence of chemical substance/The level of expressed mRNA in the absence of chemical substance (yeast gene YHR092C): 2.3 | The level of expressed mRNA in the presence of chemical substance/The level of expressed mRNA in the absence of chemical substance (yeast gene YHR094C): 0.7 | The level of expressed mRNA in the presence of chemical substance/The level of expressed mRNA in the absence of chemical substance (yeast gene YHR175W): 0.8 | The level of expressed mRNA in the presence of chemical substance/The level of expressed mRNA in the absence of chemical substance (yeast gene YIL006W): 1.0 | The level of expressed mRNA in the presence of chemical substance/The level of expressed mRNA in the absence of chemical substance (yeast gene YIL022W): 0.8 | The level of expressed mRNA in the presence of chemical substance/The level of expressed mRNA in the absence of chemical substance (yeast gene YIL056W): 1.1 | The level of expressed mRNA in the presence of chemical substance/The level of expressed mRNA in the absence of chemical substance (yeast gene YIL088C): 0.9 | The level of expressed mRNA in the presence of chemical substance/The level of expressed mRNA in the absence of chemical substance (yeast gene YJL034W): 0.7 | The level of expressed mRNA in the presence of chemical substance/The level of expressed mRNA in the absence of chemical substance (yeast gene YJL212C): 0.8 | The level of expressed mRNA in the presence of chemical substance/The level of expressed mRNA in the absence of chemical substance (yeast gene YJL219W): 1.2 | The level of expressed mRNA in the presence of chemical substance/The level of expressed mRNA in the absence of chemical substance (yeast gene YJR077C): 1.1 | The level of expressed mRNA in the presence of chemical substance/The level of expressed mRNA in the absence of chemical substance (yeast gene YJR106W): 0.9 | The level of expressed mRNA in the presence of chemical substance/The level of expressed mRNA in the absence of chemical substance (yeast gene YJR121W): 0.9 | The level of expressed mRNA in the presence of chemical substance/The level of expressed mRNA in the absence of chemical substance (yeast gene YKL016C): 1.5 | The level of expressed mRNA in the presence of chemical substance/The level of expressed mRNA in the absence of chemical substance (yeast gene YKL146W): 0.8 | The level of expressed mRNA in the presence of chemical substance/The level of expressed mRNA in the absence of chemical substance (yeast gene YKR039W): 1.4 | The level of expressed mRNA in the presence of chemical substance/The level of expressed mRNA in the absence of chemical substance (yeast gene YKR067W): 0.8 | The level of expressed mRNA in the presence of chemical substance/The level of expressed mRNA in the absence of chemical substance (yeast gene YLL028W): 0.6 | The level of expressed mRNA in the presence of chemical substance/The level of expressed mRNA in the absence of chemical substance (yeast gene YLR081W): 1.3 | The level of expressed mRNA in the presence of chemical substance/The level of expressed mRNA in the absence of chemical substance (yeast gene YLR295C): 1.4 | The level of expressed mRNA in the presence of chemical substance/The level of expressed mRNA in the absence of chemical substance (yeast gene YLR348C): 1.1 | The level of expressed mRNA in the presence of chemical substance/The level of expressed mRNA in the absence of chemical substance (yeast gene YLR378C): 0.7 | The level of expressed mRNA in the presence of chemical substance/The level of expressed mRNA in the absence of chemical substance (yeast gene YMR011W): 1.3 | The level of expressed mRNA in the presence of chemical substance/The level of expressed mRNA in the absence of chemical substance (yeast gene YMR162C): 0.8 | The level of expressed mRNA in the presence of chemical substance/The level of expressed mRNA in the absence of chemical substance (yeast gene YMR203W): 0.8 | The level of expressed mRNA in the presence of chemical substance/The level of expressed mRNA in the absence of chemical substance (yeast gene YNL055C): 1.1 | The level of expressed mRNA in the presence of chemical substance/The level of expressed mRNA in the absence of chemical substance (yeast gene YNR072W): 1.1 | The level of expressed mRNA in the presence of chemical substance/The level of expressed mRNA in the absence of chemical substance (yeast gene YOL119C): 2.6 | The level of expressed mRNA in the presence of chemical substance/The level of expressed mRNA in the absence of chemical substance (yeast gene YOL156W): 1.1 | The level of expressed mRNA in the presence of chemical substance/The level of expressed mRNA in the absence of chemical substance (yeast gene YOL163W): 1.5 | The level of expressed mRNA in the presence of chemical substance/The level of expressed mRNA in the absence of chemical substance (yeast gene YOR035C): 1.2 | The level of expressed mRNA in the presence of chemical substance/The level of expressed mRNA in the absence of chemical substance (yeast gene YOR130C): 0.8 | The level of expressed mRNA in the presence of chemical substance/The level of expressed mRNA in the absence of chemical substance (yeast gene YOR153W): 1.6 | The level of expressed mRNA in the presence of chemical substance/The level of expressed mRNA in the absence of chemical substance (yeast gene YOR273C): 0.7 | The level of expressed mRNA in the presence of chemical substance/The level of expressed mRNA in the absence of chemical substance (yeast gene YOR316C): 0.7 | The level of expressed mRNA in the presence of chemical substance/The level of expressed mRNA in the absence of chemical substance (yeast gene YOR328W): 1.0 | The level of expressed mRNA in the presence of chemical substance/The level of expressed mRNA in the absence of chemical substance (yeast gene YOR332W): 1.1 | The level of expressed mRNA in the presence of chemical substance/The level of expressed mRNA in the absence of chemical substance (yeast gene YOR348C): 1.1 | The level of expressed mRNA in the presence of chemical substance/The level of expressed mRNA in the absence of chemical substance (yeast gene YPL036W): 0.5 | The level of expressed mRNA in the presence of chemical substance/The level of expressed mRNA in the absence of chemical substance (yeast gene YPL134C): 1.5 | The level of expressed mRNA in the presence of chemical substance/The level of expressed mRNA in the absence of chemical substance (yeast gene YPL271W): 1.2 | The level of expressed mRNA in the presence of chemical substance/The level of expressed mRNA in the absence of chemical substance (yeast gene YPR192W): 0.9 | The level of expressed mRNA in the presence of chemical substance/The level of expressed mRNA in the absence of chemical substance (yeast gene YPR194C): 2.2
